pKi: −log10 of the molar value.
Columns and labels:
SER-1trunc = format: biochemical; details: beta-lactam substrate and mode only in supplement
SPR-1trunc = SPR-1trunc (Serratia proteamaculans, UniProt Z9GZR1QZ95); format: biochemical; details: beta-lactam substrate and mode only in supplement
SPR-1trunc, sequence (Z9GZR1QZ95 50-298 limits assumed): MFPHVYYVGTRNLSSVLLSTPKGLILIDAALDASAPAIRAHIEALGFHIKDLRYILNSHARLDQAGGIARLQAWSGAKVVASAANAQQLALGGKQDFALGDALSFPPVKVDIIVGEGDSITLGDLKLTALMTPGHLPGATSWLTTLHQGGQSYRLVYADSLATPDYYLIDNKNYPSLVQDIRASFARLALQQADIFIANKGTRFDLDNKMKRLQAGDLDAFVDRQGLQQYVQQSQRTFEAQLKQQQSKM

SMILES: O=C(O)[C@H]1/C(=C/CO)O[C@@H]2CC(=O)N21 [CA, clavulanic acid]
- pKi (SER-1trunc): 3.54
- pKi (SPR-1trunc): 3.70

Reference: paper PMC7381538, “Broad spectrum antibiotic-degrading metallo-β-lactamases are phylogenetically diverse” (Protein & Cell, 2020)
